Measurements as given in the SangsterLogP compilation.

Row | SMILES | logP
1 | Brc1c(Br)c(Br)c(Br)c(Br)c1Br | 6.51
2 | C=C1C(CCl)(CCl)C2(Cl)C(Cl)C(Cl)C1(Cl)C2(Cl)Cl (mixture of isomers) | 5.5
3 | COC(=O)C(C)N(C(=O)c1ccccc1)c1ccc(F)c(Cl)c1 (racemic) | 3.48
4 | Clc1ccc(-c2cc(Cl)ccc2Cl)cc1 | 5.56
5 | CCN(CC)C(=O)C(Cl)=C(C)OP(=O)(OC)OC | 1.34
6 | COc1c(Cl)ccc(Cl)c1C(=O)O | 3.01
7 | CC(C)OC(=O)[C@H](C)N(C(=O)c1ccccc1)c1ccc(F)c(Cl)c1 (racemic) | 4.41
8 | CC(C)Oc1cc(-n2nc(C(C)(C)C)oc2=O)c(Cl)cc1Cl | 4.09
9 | Cc1nc(C)c(Cl)c(O)c1Cl | 0.5
10 | CCOC(=O)C(C)N(C(=O)c1ccccc1)c1ccc(Cl)c(Cl)c1 (racemic) | 4.57
11 | O=C(O)COc1nc(Cl)c(Cl)cc1Cl | 2.09
12 | COc1cc(Cl)c(OC)cc1Cl | 3.46
13 | ClC=C(c1ccc(Cl)cc1)c1ccc(Cl)cc1 | 5.27
14 | COP(=S)(OC)Oc1ccc(S(=O)(=O)N(C)C)cc1 | 2.28
